Here are results for eleven molecules from the NIST ThermoML archive (doi:10.1016/j.fluid.2007.09.028).

The conditions of series [1]: 101 kPa, Liquid.
The nature of series [2]: xn = mol fraction of the nth substance listed. The settings on record: 101 kPa, Liquid, x1 = 1.

± gives the expanded uncertainty stated by the source.

Take `CC(C)(C)O` [2-methylpropan-2-ol]: the mass density in series [1] (303.15 K) amounted to 775.412 ± 0.49 kg/m3; in series [1] (308.15 K), 770.193 ± 0.49 kg/m3; in series [1] (313.15 K) it was 764.884 ± 0.5 kg/m3; in series [1] (318.15 K) it was 759.488 ± 0.51 kg/m3; in series [1] (323.15 K), 754.015 ± 0.52 kg/m3.
As for `CC(C)(C)O` [2-methylpropan-2-ol] + Clc1ccccc1, the mass density in series [2] (303.15 K) was 775.412 ± 0.49 kg/m3; in series [2] (308.15 K), 770.193 ± 0.49 kg/m3; in series [2] (313.15 K) it was 764.884 ± 0.5 kg/m3; in series [2] (318.15 K), 759.488 ± 0.51 kg/m3; in series [2] (323.15 K) it was 754.015 ± 0.52 kg/m3.
For the molecule `CCCCO` [butan-1-ol], the mass density in series [1] (288.15 K) worked out at 813.373 ± 0.45 kg/m3; in series [1] (293.15 K) it was 809.573 ± 0.45 kg/m3; in series [1] (298.15 K), 805.762 ± 0.46 kg/m3; in series [1] (303.15 K) it was 801.923 ± 0.47 kg/m3; in series [1] (308.15 K), 798.053 ± 0.47 kg/m3; in series [1] (313.15 K), 794.147 ± 0.48 kg/m3.
Consider `CCCCO` [butan-1-ol] + Clc1ccccc1, for which the mass density in series [2] (288.15 K) was 813.373 ± 0.45 kg/m3; in series [2] (293.15 K), 809.573 ± 0.45 kg/m3; in series [2] (298.15 K) it was 805.762 ± 0.46 kg/m3; in series [2] (303.15 K), 801.923 ± 0.47 kg/m3; in series [2] (308.15 K), 798.053 ± 0.47 kg/m3; in series [2] (313.15 K), 794.147 ± 0.48 kg/m3.
For the molecule `CCC(C)O` (stereo unspecified) [butan-2-ol], the mass density in series [1] (288.15 K) is given as 810.689 ± 0.55 kg/m3; in series [1] (293.15 K), 806.646 ± 0.56 kg/m3; in series [1] (298.15 K), 802.528 ± 0.56 kg/m3; in series [1] (303.15 K), 798.326 ± 0.56 kg/m3; in series [1] (308.15 K), 794.03 ± 0.57 kg/m3; in series [1] (313.15 K), 789.632 ± 0.58 kg/m3.
For the molecule `CCC(C)O` (stereo unspecified) [butan-2-ol] + Clc1ccccc1, the mass density in series [2] (288.15 K) worked out at 810.689 ± 0.55 kg/m3; in series [2] (293.15 K), 806.646 ± 0.56 kg/m3; in series [2] (298.15 K) it was 802.528 ± 0.56 kg/m3; in series [2] (303.15 K), 798.326 ± 0.56 kg/m3; in series [2] (308.15 K) it was 794.03 ± 0.57 kg/m3; in series [2] (313.15 K), 789.632 ± 0.58 kg/m3.
Turning to `Clc1ccccc1` [chlorobenzene], the mass density in series [1] (288.15 K) is on record as 1111.81 ± 0.3 kg/m3; in series [1] (293.15 K) it was 1106.43 ± 0.29 kg/m3; in series [1] (298.15 K) it was 1101.04 ± 0.28 kg/m3; in series [1] (303.15 K) it was 1095.64 ± 0.28 kg/m3; in series [1] (308.15 K), 1090.23 ± 0.27 kg/m3; in series [1] (313.15 K), 1084.82 ± 0.26 kg/m3. For the same molecule, the mass density in series [1] (318.15 K) is given as 1079.42 ± 0.25 kg/m3; in series [1] (323.15 K), 1073.97 ± 0.24 kg/m3.
For `CCCCCO` [pentan-1-ol], the mass density in series [1] (288.15 K) is reported as 818.282 ± 0.54 kg/m3; in series [1] (293.15 K) it was 814.635 ± 0.55 kg/m3; in series [1] (298.15 K) it was 810.968 ± 0.55 kg/m3; in series [1] (303.15 K), 807.278 ± 0.55 kg/m3; in series [1] (308.15 K), 803.558 ± 0.56 kg/m3; in series [1] (313.15 K) it was 799.817 ± 0.56 kg/m3.
For `CCCCCO` [pentan-1-ol] + Clc1ccccc1, the mass density came to 818.282 ± 0.54 kg/m3 in series [2] (288.15 K); 814.635 ± 0.55 kg/m3 in series [2] (293.15 K); 810.968 ± 0.55 kg/m3 in series [2] (298.15 K); 807.278 ± 0.55 kg/m3 in series [2] (303.15 K); 803.558 ± 0.56 kg/m3 in series [2] (308.15 K); 799.817 ± 0.56 kg/m3 in series [2] (313.15 K).
On to `CCCO` [propan-1-ol], for which the mass density is given as 807.69 ± 0.46 kg/m3 in series [1] (288.15 K); 803.703 ± 0.46 kg/m3 in series [1] (293.15 K); 799.692 ± 0.47 kg/m3 in series [1] (298.15 K); 795.65 ± 0.47 kg/m3 in series [1] (303.15 K); 791.576 ± 0.48 kg/m3 in series [1] (308.15 K); 787.466 ± 0.49 kg/m3 in series [1] (313.15 K).
Regarding `CCCO` [propan-1-ol] + Clc1ccccc1, the mass density in series [2] (288.15 K) is listed as 807.69 ± 0.46 kg/m3; in series [2] (293.15 K), 803.703 ± 0.46 kg/m3; in series [2] (298.15 K), 799.692 ± 0.47 kg/m3; in series [2] (303.15 K) it was 795.65 ± 0.47 kg/m3; in series [2] (308.15 K), 791.576 ± 0.48 kg/m3; in series [2] (313.15 K), 787.466 ± 0.49 kg/m3.
